Measured values from patent publication US20050158775A1, “Novel plamid DNA comprising reoprter gene DNA and use of the same” (priority 1997, published 2005).

Key:
[1] = biological target: T1, Gal4-human PPAR γ chimeric receptor protein (Homo sapiens, UniProt P37231)
T1 sequence (P37231 176-477 isoform P37231-2): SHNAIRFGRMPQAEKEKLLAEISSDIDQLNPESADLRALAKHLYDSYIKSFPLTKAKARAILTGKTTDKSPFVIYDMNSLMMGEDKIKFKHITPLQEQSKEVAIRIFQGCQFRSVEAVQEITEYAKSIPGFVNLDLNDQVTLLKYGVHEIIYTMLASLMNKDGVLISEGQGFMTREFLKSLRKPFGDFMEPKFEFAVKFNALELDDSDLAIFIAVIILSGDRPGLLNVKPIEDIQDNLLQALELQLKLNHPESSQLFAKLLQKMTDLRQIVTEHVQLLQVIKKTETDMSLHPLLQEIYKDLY

[2] = biological target: T2, Gal4-human PPAR α chimeric receptor protein (Homo sapiens, UniProt Q07869); format: cell-based
T2 construct: the 167th serine (Ser) to the 468th tyrosine (Tyr) of the human PPAR α receptor; expressed in transfected cells
T2 sequence (Q07869 167-468): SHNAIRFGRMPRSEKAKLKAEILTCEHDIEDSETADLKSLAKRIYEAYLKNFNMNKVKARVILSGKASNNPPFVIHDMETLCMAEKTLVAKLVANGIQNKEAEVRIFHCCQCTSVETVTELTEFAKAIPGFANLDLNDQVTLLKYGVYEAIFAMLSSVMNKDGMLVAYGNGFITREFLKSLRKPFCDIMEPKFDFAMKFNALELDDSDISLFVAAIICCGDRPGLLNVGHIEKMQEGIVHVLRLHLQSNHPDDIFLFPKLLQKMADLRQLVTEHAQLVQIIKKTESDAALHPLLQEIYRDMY

[3] = biological target: T3, Gal4-human PPAR δ chimeric receptor protein (Homo sapiens, UniProt Q03181); format: cell-based
T3 construct: the 139th serine (Ser) to the 441st tyrosine (Tyr) of the human PPAR δ receptor; expressed in transfected cells
T3 sequence (Q03181 139-441): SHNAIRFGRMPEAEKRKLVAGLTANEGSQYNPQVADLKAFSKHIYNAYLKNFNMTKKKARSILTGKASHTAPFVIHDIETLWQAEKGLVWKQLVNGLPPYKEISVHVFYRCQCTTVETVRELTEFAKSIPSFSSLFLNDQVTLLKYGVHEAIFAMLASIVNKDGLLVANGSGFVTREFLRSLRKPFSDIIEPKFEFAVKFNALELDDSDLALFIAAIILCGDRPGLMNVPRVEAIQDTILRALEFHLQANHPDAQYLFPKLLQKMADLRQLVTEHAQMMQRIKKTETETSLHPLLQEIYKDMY

| SMILES | cell death of PPAR γ ligand-responsive cells [1] | cell death of PPAR α ligand-responsive cells [2] | cell death of PPAR δ ligand-responsive cells [3] |
| --- | --- | --- | --- |
| Cc1cccc(Nc2cc(Cl)nc(SCC(=O)O)n2)c1C [Wy-14643] | do not cause cell death | cause dose-dependent cell death | – |
| CCCCCC#CCC#CCC#CCC#CCCCC(=O)O [ETYA] | – | cause dose-dependent cell death | do not cause cell death |
